Among the data in patent publication US8436028B2, “CETP inhibitors derived from benzoxazole arylamides” (Merck Sharp & Dohme Corp, priority 2007, dated 2013) are IC50 values, retold here.

As usually defined, the IC50 is the point on the concentration scale where inhibition reaches its midpoint.

The test concerns the target T1, recombinant human CETP (Homo sapiens, UniProt P11597).
T1 construct: made in house; host or cells: CHO cells
T1 sequence (P11597 18-493): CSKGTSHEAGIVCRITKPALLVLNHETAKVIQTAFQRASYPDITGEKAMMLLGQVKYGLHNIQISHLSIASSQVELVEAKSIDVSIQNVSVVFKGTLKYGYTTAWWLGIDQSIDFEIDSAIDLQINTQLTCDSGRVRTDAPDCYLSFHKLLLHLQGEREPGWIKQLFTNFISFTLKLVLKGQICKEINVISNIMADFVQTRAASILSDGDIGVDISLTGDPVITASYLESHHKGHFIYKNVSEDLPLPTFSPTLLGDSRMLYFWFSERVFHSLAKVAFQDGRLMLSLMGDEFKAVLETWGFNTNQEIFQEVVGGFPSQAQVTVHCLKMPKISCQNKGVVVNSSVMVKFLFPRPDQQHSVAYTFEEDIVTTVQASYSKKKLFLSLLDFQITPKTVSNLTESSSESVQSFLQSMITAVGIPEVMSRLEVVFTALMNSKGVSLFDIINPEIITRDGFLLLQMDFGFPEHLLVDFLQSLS
Briefly: CETP assay, CE transfer reaction (BODIPY-CE fluorescence, continuous). Format: biochemical. Conditions: 3% human serum, 25° C., read-out: IC50 value as measured for the CE transfer reaction. As for the experimental part:
An in vitro continuous assay for determining IC50's to identify compounds that are CETP inhibitors was performed based on a modification of the method described by Epps et al. employing BODIPY®-CE as the cholesteryl ester lipid donor and BODIPY®-TG as the triglyceride lipid donor. See Epps et al. (1995) Method for measuring the activities of cholesteryl ester transfer protein (lipid transfer protein), Chem. Phys. Lipids. 77, 51-63.
Particles used in the assay were created from the following materials by probe sonication essentially as described by Epps et al. Synthetic cholesteryl ester (CE) donor HDL particles contained DOPC (Dioleoyl Phosphatidyl Choline), BODIPY®-CE (Molecular Probes C-3927), triolein (a triglyceride), dabcyl dicetylamide, (a non-diffusable quencher molecule to reduce background fluorescence) and apoHDL. Synthetic triglyceride (TG) donor HDL particles contained DOPC, BODIPY®-TG, and apoHDL. BODIPY®-TG was synthesized at room temperature from diolein and the BODIPY containing fatty acid analog 4,4-difluoro-5-(2-thienyl)-4-bora-3a,4a-diaza-s-indacene-3-dodecanoic acid (Molecular Probes) in methylene chloride in the presence of dicyclohexyl carbodimide. Dabcyl dicetylamide was made by heating dabcyl n-succinimide with dicetylamine in DMF at 95° C. overnight in the presence of diisopropylamine catalyst. Native lipoproteins from human blood were used as acceptor particles. Particles having a density less than 1.063 g/ml were collected by ultracentrifugation. These particles include VLDL, IDL, and LDL. Particle concentrations were expressed in terms of protein concentration as determined by BCA assay (Pierce, USA). Particles were stored at 4° C. until use.
Assays were performed in Dynex Microfluor 2 U-bottom black 96-well plates (Cat #7205). An assay cocktail containing CETP, 1×CETP buffer (50 mM Tris, pH 7.4, 100 mM NaCl, 1 mM EDTA), 3% human serum, and half the final concentration of acceptor particles was prepared, and 100 μL of the assay cocktail was added to each well of the plate. Test compounds in DMSO were added in a volume of […]. The plate was mixed on a plate shaker and then incubated at 25° C. for 1 hour. A second assay cocktail containing donor particles, the remaining acceptor particles and 1×CETP buffer was prepared. 47 μL of the second assay cocktail was added to the reaction wells to start the assay. Assays were performed in a final volume of 150 μL. CE transfer reactions were performed as follows: final concentrations of materials were: 2.5 ng/μL CE donor particles, 7.5 ng/μL acceptor particles (each expressed by protein content), 1×CETP buffer, 14-30 nM recombinant human CETP (expressed in CHO cells and partially purified), and up to 2% DMSO when testing compounds; reactions were followed in a fluorescence plate reader (Molecular Devices Spectramax GeminiXS) set for a 45 minute kinetic run at 25° C. which read the samples every 45 sec at Ex=480 nm, Em=511 nm, with a cutoff filter at 495 nm, photomultiplier tube setting of medium, calibration on, and 6 reads/well. TG transfer reactions were performed as described above with the exception that 2.5 ng/uL TG donor particles were used. TG transfer was measured at an excitation wavelength of 538 nm while reading emission at 568 nm every 45 sec for 45 min at 37° C. with a cutoff filter at 550 nm.
Data were evaluated by obtaining an initial rate, expressed in relative fluorescence units per second, for the pseudolinear portion of the curve, often 0-500 or 1000 sec. Comparison of the rates of samples with inhibitors to an uninhibited (DMSO only) positive control yielded a percent inhibition. A plot of percent inhibition vs. log of inhibitor concentration, fit to a Sigmoidal 4 parameter equation was used to calculate […].
For `CC(C)c1cc(C#N)cc2nc(-c3ccc(C(=O)NC[C@H]4CC[C@H](CC(=O)Nc5cc(C(F)(F)F)ccn5)CC4)cc3)oc12` [Example 44, 4-(5-Cyano-7-isopropyl-1,3-benzoxazol-2-yl)-N-{[trans-4-(2-oxo-2-{[4-(trifluoromethyl)pyridin-2-yl]amino}ethyl)cyclohexyl]methyl}benzamide], the IC50 lay within 12 to 41 nM.
As for `CC(C)c1cc(C#N)cc2nc(-c3ccc(C(=O)NC[C@H]4CC[C@H](CCOC(C)(C(F)(F)F)C(F)(F)F)CC4)cc3)oc12` [Example 45, 4-(5-Cyano-7-isopropyl-1,3-benzoxazol-2-yl)-N-[(trans-4-{2-[2,2,2-trifluoro-1-methyl-1-(trifluoromethyl)ethoxy]ethyl}cyclohexyl)methyl]benzamide], the concentration for half-maximal inhibition (IC50) was in the range of 12 to 41 nM.
In the case of `CC(C)c1cc(C#N)cc2nc(-c3ccc(C(=O)NCC4CC=C(Cc5ccc(C(F)(F)F)cc5)CC4)cc3)oc12` (stereo not shown) [Example 47, 4-(5-Cyano-7-isopropyl-1,3-benzoxazol-2-yl)-N-({4-[4-(trifluoromethyl)benzyl]cyclohex-3-en-1-yl}methyl)benzamide] it was 12 to 41 nM.
As for `CC(C)c1cc(C#N)cc2nc(-c3ccc(C(=O)NCC4(c5ccccc5)CCCCC4)cc3)oc12` [Example 48], the figure is 12 to 41 nM.
Take `CC(C)c1cc(C#N)cc2nc(-c3ccc(C(=O)NC[C@H]4CC[C@H](c5ccc(C(F)(F)F)cc5)CC4)cc3)oc12` [Example 53]: the 50% inhibitory concentration (IC50) lay in the range of 12 to 41 nM.
In the case of `CC(C)c1cc(C#N)cc2nc(-c3ccc(C(=O)NC[C@H]4CC[C@@H](c5ccc(C(C)(C)C)cc5)CC4)cc3)oc12` [Example 64] it was 12 to 41 nM.
As for `CC(C)c1cc(C#N)cc2nc(-c3ccc(C(=O)NC[C@H]4CC[C@H](c5ccc(C(C)(C)C)cc5)CC4)cc3)oc12` [Example 65], the figure is 12 to 41 nM.
As for `Cc1ccc2c(c1)cc(C1=CCC(CNC(=O)c3ccc(-c4nc5cc(C#N)cc(C(C)C)c5o4)cc3)CC1)n2C(=O)OC(C)(C)C` (stereo not shown) [Example 76], the IC50 fell in the range of 12 to 41 nM.
As for `CC(C)c1cc(C#N)cc2nc(-c3ccc(C(=O)NC[C@H]4CC[C@H](c5cc6ccccc6n5C)CC4)cc3)oc12` [Example 81], the IC50 was in the range of 12 to 41 nM.
Consider `CC(C)c1cc(C#N)cc2nc(-c3ccc(C(=O)NC[C@H]4CC[C@H](c5cc6ccccc6o5)CC4)cc3)oc12` [Example 82], for which the half-inhibitory concentration (IC50) is 12 to 41 nM.
